Experimental data taken from patent US10041047B2, “Compositions and methods for epithelial stem cell expansion and culture” (The Brigham and Women's Hospital, Inc., priority 2013, dated 2018).

How the values were obtained:
[1] = test system: Lgr5+ stem/progenitor cells derived from the mouse inner ear; assay: Culture of inner ear (cochlear) Lgr5-GFP epithelial cells in Matrigel; format: cell-based; details: organ of Corti single cells, Matrigel, 8 days
Source text: The same culture condition (EGF, Noggin, R-spondin1, or “ENR”) as used in Lgr5+ small intestinal stem cell cultures was first established.
Isolated organ of Corti from Lgr5-GFP mice were dissociated into single cells using accutase and cultured in multiple combinations of soluble factors and small molecules in Matrigel for 8 days. The resulting cultures were further dissociated into single cells and analyzed using FACS. […] In addition, the combination of EGF, bFGF and IGF-1 (designated as EFI) improved cell proliferation and GFP expression compared with the ENR condition (FIG. 14A-14C).
To further investigate the effects of individual growth factors when combined with CHIR and VPA, growth factors including Mitogenic growth factors (EGF, bFGF and IGF-1) as well as the Wnt agonist R-spondin 1 in combination with CHIR and VPA were tested.

[2] = test system: Lgr5+ stem/progenitor cells derived from the mouse inner ear; assay: as above; format: cell-based; details: single cochlear epithelial cells, 11 days (FIG. 13B)
single Lgr5-GFP cells = assay: Culture of FACS-sorted single Lgr5-GFP cells: colony formation, proliferation, GFP expression; format: cell-based; details: for GFP expression / cell proliferation: single GFP-high cells, 7 day culture with ENR
Description: Crypts and single Lgr5-GFP cells were isolated as previously described (Sato et al., 2009). Briefly, the proximal half of the small intestine was harvested, opened longitudinally, and washed with cold PBS to remove luminal content. The tissue was then cut into 2-4 mm pieces with scissors and further washed 5-10 times with cold PBS by pipetting up and down using a 10-ml pipette. Tissue fragments were incubated with 2 mM EDTA in PBS for 30 min on ice. After removal of EDTA, tissue fragments were washed with PBS to release crypts. Supernatant fractions enriched in crypts were collected, passed through a 70 μm cell strainer and centrifuged at 300 g for 5 minutes. The cell pellet was re-suspended with cell culture media without growth factors and centrifuged at 150 g to remove single cells. Crypts were then cultured or used for single cell isolation. To obtain single cells, crypts were incubated in culture medium for 45 minutes at 37° C. and triturated with a glass pipette. Dissociated cells were passed through 20 μm cell strainer, negative stained with propidium iodide and single viable GFP-high cells were sorted by flow cytometry (FACS Aria, BD) as previously described (Sato et al., 2009). […] Isolated crypts or single cells were cultured as previously described (Sato et al., 2009) with minimal modification. Briefly, crypts or single cells were entrapped in Matrigel and plated at the center of wells in a 24-well plate. After polymerization of Matrigel (growth factor reduced; BD Bioscience), 500 μl of culture medium (Advanced DMEM/F12 (Life Technologies)) was added containing growth factors including EGF (50 ng/ml, Life Technologies), Noggin (100 ng/ml, Peprotech) and R-spondin 1 (500 ng/ml, R&D) and small molecules including CHIR99021 (3 μM, Stemgent) and Valproic Acid (1 mM, Sigma-Aldrich). For comparison of different culture conditions, small molecules or growth factors were added to freshly isolated crypts immediately after plating in Matrigel to test the ability to minimize potential differentiation of the ISC within the crypts and thus sustain crypt cultures. Cell culture media was changed every other day. For single cell culture, cells were embedded in Matrigel containing Jagged-1 peptide (1 μM; AnaSpec) and Y-27632 (10 μM; Tocris) was added for the first 2 days. Cells were passaged either as cell colonies as previously described (Sato et al., 2009) or as single cells. For single cell passage, cell culture medium was removed and Accutase (Life Technologies) was added. After incubation at 37° C. for 10-20 minutes, cell colonies were dissociated into single cells by pipetting. Cells were then washed, embedded in fresh Matrigel and plated into 24-well plates. Cells cultured in the CV condition were passaged every 6 days at a 1:20 split ratio.
The Rho kinase inhibitor Y-27632, which inhibits anoikis of single stem cells (Watanabe et al., 2007), was added for the first two days as previously described (Sato et al., 2009).

[3] = test system: Lgr5+ stem cells from the colon; assay: Colon crypt culture, Lgr5-GFP expression; format: cell-based, mouse; details: colon crypts (FIG. 3F)
Source text: FIGS. 3A and 3B depict colony numbers and live single cell numbers, respectively, from triplicate wells enumerated at each time point. Error bars indicate S.D. In FIG. 3A, the series are, from left to right, Day 0, Day 2, Day 4, Day 6, Day 8, and Day 10. FIG. 3C depicts FACS sorting of freshly isolated single Lgr5-GFP+ cells. A GFP^high single cell population was collected. Representative FACS analysis and the gating strategy to define the GFP+ cell population is shown. […] The GFP-population represents Lgr5- cells as well as Lgr5+/GFP- cells (i.e. GFP silenced stem cells), which is present in all unsorted crypt cultures, but not in sorted single Lgr5-GFP cell cultures (See FIG. 2C). A total of 10,000 live cells were analyzed for each sample. FIG. 3D depicts growth factor requirements for self-renewal of Lgr5+ stem cells in the CV culture condition. Crypts were cultured for 6 days in the presence of CHIR and VPA, with EGF, Noggin, R-spondin 1 and their combinations, as indicated. E: EGF (50 ng/ml); N: Noggin (100 ng/ml); R: R-spondin 1 (500 ng/ml); […] (1 mM). FIG. 3E depicts crypts cultured for 6 days in multiple conditions as indicated. GFP and brightfield images are shown. Scale bars: 200 μm. FIG. 3F depicts morphology and Lgr5-GFP expression of colon crypts cultured in ENR, ENR-C and ENR-CV conditions. […]

[4] = test system: Notch pathway genes (Notch1, Hes1, Atoh1); assay: Real-time RT-PCR of Notch pathway genes in cultured crypts; format: cell-based, mouse; details: VPA added to ENR or ENR-C for 24 hours
Description: Crypts were cultured in ENR-C condition with or without DAPT (D, 5 μM) and varying concentration of VPA (V, 0.25-4 mM) for 3 days. […] FIGS. 11B and 11C depict crypts cultured in the ENR (FIG. 11B) or ENR+CHIR (FIG. 11C) conditions for 4 days followed by addition of VPA at different concentrations for another 24 hours. The expression of Notch1, Hes1 and Atoh1 were analyzed by Real-time RT-PCR.
To investigate the effect of VPA on the activation of the Notch pathway, cells cultured in ENR or ENRC conditions were treated with VPA and analyzed for the expression of Notch pathway genes.

[5] = test system: human small intestinal crypts; assay: Culture of human small intestinal crypts: LGR5 expression (RT-PCR) and cell number; format: cell-based; details: cell numbers at day 9 after seeding (FIG. 25A)
Source text: Human small intestinal crypts were isolated from a resected normal small intestinal specimen and cultured as described in Example 1. The same cell culture solutions used in the culture of mouse small intestinal stem cells/crypts, which comprise a combination of CHIR99021 and VPA or Tubastatin A added to the ENR (EGF, Noggin, R-Spondin 1) condition, were compared to published cell culture solutions for human intestinal stem cells/crypts (Jung et al., 2011; Sato et al., 2011). RT-PCR was used to assess the maintenance of epithelial stem cells in the culture, specifically by determining the self-renewal or differentiation status. LGR5 was used as a stem cell marker and ALPI, MUC2, CHGA and LYZ were used as differentiation markers. Cell growth was assessed by counting the cell number in the cultures and by observing the morphology and size of colonies.

SMILES	GFP expression (in words) [1]	cell proliferation (in words) [1]	GFP expression [2]	cell proliferation [2]	colony-forming efficiency [2]	increase of colony-forming efficiency (single Lgr5-GFP cells; CHIR added to ENR, single Lgr5-GFP+ cells)	GFP expression (single Lgr5-GFP cells)	cell proliferation (single Lgr5-GFP cells)	GFP expression of Lgr5+ stem cells from the colon [3]	expression of Hes1 [4]	expression of Notch1 [4]	proliferation of human small intestinal crypts (cell number) [5]	colony-forming efficiency (in words) (single Lgr5-GFP cells; single Lgr5-GFP+ cells, agent(s) added to ENR)
Cc1cnc(-c2cnc(NCCNc3ccc(C#N)cn3)nc2-c2ccc(Cl)cc2Cl)[nH]1 [CHIR99021, 6-[[2-[[4-(2,4-Dichlorophenyl)-5-(5-methyl-1H-imidazol-2-yl)-2-pyrimidinyl]amino]ethyl]amino]-3-pyridinecarbonitrile]	not CHIR or VPA alone	not CHIR or VPA alone	not CHIR alone	not CHIR alone	not CHIR alone	20-50 fold	only moderately increased	significantly increased cell proliferation					
CCCC(CCC)C(=O)O [Valproic Acid]	not CHIR or VPA alone	not CHIR or VPA alone					promoted GFP expression	minimal pro-proliferative effect	promoted GFP expression	moderately decreased	moderately decreased	increased cell proliferation	only weakly increased
